# Experimental data reported in US11560546B2, “Methods for neural conversion of human embryonic stem cells” (MEMORIAL SLOAN KETTERING CANCER CENTER, priority 2009, dated 2023).
# Counter-ions that a name gives are not always drawn.
# B1: BMP4: bone morphogenetic protein-4, exogenous BMP (protein, UniProt P12644 293-408, looked up)
# Bone morphogenetic protein 4: SPKHHSQRARKKNKNCRRHSLYVDFSDVGWNDWIVAPPGYQAFYCHGDCPFPLADHLNSTNHAIVQTLVNSVNSSIPKACCVPTELSAISMLYLDEYDKVVLKNYQEMVVEGCGCR
# How the values were obtained:
# [1] = system: NSB derived neural precursor cells; experiment: Conditioned media patterning of naive neural progenitor cells, qRT-PCR; assay type: cell-based, human
# Description: The FP has important functional roles during development in neural patterning and axonal path finding (Jessell, 2000). To assess the functional properties of hESCs derived FP conditioned media was isolated at days 9 and 11 and tested for expression of Netrin-1 in the medium using ELISA (FIG. 3A). Under normal NSB conditions, Netrin-1 is detectable at Day 9 and decreases at Day 11 while in the NSB+SHH condition, there is a 3.5 fold increase in Netrin-1 levels, increasing at Day 11 (FIG. 3B). SHH is a critical patterning factor secreted by FP cells and specifying ventral cell types in a dose-dependent manner. To test if hESCs derived FP secretes factors that can specify ventral precursor domains, conditioned media (CM) was isolated at Days 9 and 11 of the differentiation. At Day 6, exogenous SHH was removed and cultures were washed to eliminate any exogenously added SHH from the medium. Naïve neural progenitor cells were isolated at Day 11 of the control (NSB) protocol and cultured with either NSB CM or FP CM. After Day 5 of culture in the presence of CM, the inventors probed for the expression of ventral precursor markers and expression of the SHH responsive gene GLI2. […] Increase in the expression of ventral markers was confirmed at the level of protein (FIG. 3C′).
# [2] = system: rosette-stage neural cells; experiment: Floor plate induction in stromal-feeder (MS5) derived / rosette-stage neural cells; assay type: cell-based, human
# Procedure: (§1) For MS5 induction, established methods previously reported were used (Perrier et al., 2004). Feeder free neural induction was carried out as previously described (Chambers et al., 2009). Briefly, hESCs cultures were disaggregated using accutase for 20 minutes, washed using hESCs media and pre-plated on gelatin for 1 hour at 37° C. in the presence of ROCK inhibitor to remove MEFs. The nonadherent hESCs were washed and plated on matrigel at a density of 20,000 cells/cm2 on matrigel (BD) coated dishes in MEF conditioned hESCs media (CM) spiked with 10 ng/mL of FGF-2 and ROCK-inhibitor. The ROCK inhibitor was withdrawn, and hESCs were allowed to expand in CM for 3 days or until they were nearly confluent. The initial differentiation media conditions included knock out serum replacement (KSR) media with […] TGF-b inhibitor (SB431542, Tocris) and 500 ng/mL of Noggin (R&D). Upon day 5 of differentiation, increasing amounts of N2 media (25%, 50%, 75%) was added to the KSR media every two days while maintaining 500 ng/mL of Noggin and TGF-b inhibitor. For FP induction, Sonic C25II was added at 200 ng/ml.
# hESC derived neural cells at the rosette stage were differentiated into both CNS and PNS progeny and patterned towards multiple cells fates along the A/P and D/V axis (Elkabetz et al., 2008). […] Specification of progenitor cells into FP tissue and cells during mouse development was thought to depend on SHH signaling within early neural lineages. The inventors tested whether rosette-stage neural cells were competent to undergo FP specification in response to SHH. High concentrations of SHH were needed to induce FP during mouse development (Roelink et al., 1994; Ericson et al., 1996). Recombinant N-terminal SHH has a limited activity range due to the lack of posttranslational modifications required for full SHH action. Recently, a modified version of recombinant SHH became available where SHH was tethered to two Isoleucines (Sonic C25II, R&D Systems), mimicking more closely the potency of mammalian SHH protein.
# The majority of cells retained rosette cytoarchitecture and staining for the AN marker BF1 as described previously (FIG. 1A) (Elkabetz et al., 2008).
# Based on the hypothesis that FP specification in the mouse occurs at early developmental stages, at the time of or prior to neural induction, the inventors repeated SHH induction studies at Day 9, the time of rosette specification, using classic stromal-feeder mediated neural induction protocols (Elkabetz et al., 2008). Under this paradigm the inventors noticed a drastic change in cell morphology restricted to the cells treated with SHH-C25II (FIG. 1B).
# hESCs [3] = experiment: Floor plate induction in NSB protocol, FOXA2 immunostaining; assay type: cell-based, human; details: NSB protocol
# Procedure: as §1
# Tissue was fixed using 4% paraformaldehyde and Picric acid for 15 minutes, washed with PBS, permeablized using 0.3% Triton X in PBS, and blocked using 10% Donkey Serum. Primary antibodies used for microscopy included PAX6 (Covance), TUJ1 (Covance), ZO1 (Zymed), BF1 (FOXG1, gift E.Lai), TH (Pelfreez), NKX6.1 (DSHB) and FOXA2 (SantaCruz).
# Using this protocol, in combination with compositions and methods of the present inventions, the inventors aimed to optimize FP differentiation by adding Sonic C25II at different time points during neural induction and assaying for FOXA2 expression. Differentiation was initiated upon NSB exposure, and Sonic C25II was added at Day 1, Day 3, Day 5, or Day 7 (FIG. 2A).
# hESCs [4] = experiment: qRT-PCR of FP, AN and regional markers during FP induction; assay type: cell-based, human
# Procedure: as §1
# Total RNA was extracted using an RNeasy kit (Qiagen). For each sample, 1 ug of total RNA was treated for DNA contamination and reverse transcribed using the Superscript III (Invitrogen). Amplified material was detected using Taqman probes and PCR mix (ABI) on a Mastercycler RealPlex2 (Eppendorf). All results were normalized to a HPRT control and are from 3 technical replicates of 3 independent biological samples at each data point.
# FOXA2 is a key marker of FP development. However, FOXA2 is also highly expressed in the endoderm. To further characterize the hESC derived putative FP tissue, the inventors performed qRT-PCR analyses for candidate markers at Day 11. […] The inventors further characterized the nature of FOXA2+ putative FP cells using a panel of neural precursor, glial, neuronal and non-neural markers (FIG. 7). […] To distinguish FOXA2 expression in hESC derived FP versus endoderm tissue, the inventors differentiated hESCs to endoderm (D'Amour et al., 2005).
# To gain further insight into the factors critical for human FP specification, high resolution temporal gene expression profiles of candidate markers were performed at 6 time points during the 11 day protocol.
# The inventors contemplated the use of SIX6 as a putative marker of anterior FP identity. Thus SIX6 status of the hESC derived FP was used to mark respecification in response to known caudalizing agents such as FGF8, Wnt-1, and Retinoic Acid. Each of these caudalizing factors was added in combination with SHH and the resulting tissue was assessed for expression of the FP markers FOXA2 and NETRIN-1, the AN marker BF1, and putative anterior FP marker SIX6.
# DKK-1 = DKK-1 transcript (qPCR) and protein in medium (ELISA); assay type: cell-based, human; details: as early as 2 days post treatment
# [5] = most functional assays; cited from earlier work
# hESCs [6] = experiment: Neural induction of hESC under adherent conditions, PAX6 expression; assay type: cell-based, human; details: 10 uM to 30 nM, each added to 10 uM of SB431542
# Procedure: The inventors contemplated that establishing an even cell distribution is critical for inducing homogenous neural differentiation of hESCs. To this end, undifferentiated hESC were dissociated into single cells and re-plated onto Matrigel coated dishes in conditioned medium supplement with ROCK inhibitor, Y-27632 (Wananabe et at, 2007). After 72 hours cells were switched from hESC conditions to knock-out serum replacement medium (KSR) containing either Noggin, SB4315242, or both factors and allowed to differentiate for a total of 11 days (FIG. 1.a.). […] Neural induction was monitored by expression of PAX6, an early marker of neuroectodermal differentiation ([…], et al., Annu Rev Neurosci 20:483 (1997). As an alternative to the specific Smad inhibitors used here, it is possible to block both distinct Smad pathways using alternative inhibitors or mechanisms. Dorsomorphin is a small molecule alternative to Noggin, targeting the same pathway. Concentrations ranged from 10 uM to 30 nM, each individual amount added to 10 uM of SB431542. […] Quantitative Real-Time (Dual SMAD). […] For each sample, 1 ug of total RNA was treated for DNA contamination and reverse transcribed using the Quantitect RT kit (Qiagen). Amplified material was detected using Quantitect SYBR green probes and PCR kit (Qiagen) on a Mastercycler RealPlex2 (Eppendorf). […]
# hESCs [7] = experiment: Placode induction from hESC (Six1 immunocytochemistry, qRT-PCR); assay type: cell-based, human; details: early addition to SB431542 (1 μM) treated hESCs
# Description: Sensory placodes are developmental structures formed at the interface of early neuroectodermal and non-neural ectoderm tissue. To address whether the N-SB culture system is suitable for the derivation of placodal cells, The inventors first established a set of markers to identify placode identity in human embryonic stem cells (hESCs)-derived cultures. From studies in other model organisms, The inventors postulated a number of candidate markers to identify human placodal precursor during hESC differentiation including member of the Six, Eya, and Dlx family of transcription factors. Six1 marks the pre-placodal region and placodal cells in model organisms but is also expressed in skeletal muscle precursors.
# 276(1): p. 1-15, herein incorporated by reference. To test whether addition of exogenous BMPs enhances the derivation of Six1+ cells, The inventors exposed SB431542 (1 μM) treated hESCs to various concentration of BMP4. […] 27(3): p. 275-80; Xu, et al., Nat Biotechnol, 2002. 20(12): p. 1261-4, herein incorporated by reference.
# We next explored whether simple withdrawal of the BMP inhibitor noggin during N-SB differentiation may enhance the emergence of placodal fates by de-repressing endogenous BMP signaling. […]
molecule,measurement,setting,value
CC1=C2C[C@H]3[C@@H](CC=C4C[C@@H](O)CC[C@@]43C)[C@@H]2CC[C@]12O[C@@H]1C[C@H](C)CN[C@H]1[C@H]2C [cyclopamine],"NKX2.1, NKX6.1 and GLI2 expression induced by FP conditioned media",[1],significantly reduced
"Sonic C25II: modified recombinant SHH tethered to two Isoleucines (R&D Systems); 'SHH' in FP induction examples, added at 200 ng/ml",concentrations achieving induction of FOXA2+ cells and decrease in BF1 and PAX6,"[2]; added at Day 9, stromal-feeder neural induction",125 to 500 ng/mL
same,induction of FOXA2+ cells,"[2]; added at Day 9, stromal-feeder neural induction, Day 21",robust upregulation of FOXA2+
same,FP marker (FOXA2) expression on established rosette-stage neural cells,"[2]; dose-response, added at Day 15",did not yield cells expressing FP markers
same,FOXA2 yield with extended treatment beyond Day 11,hESCs [3],did not increase FOXA2 yield
same,FOXA2+ cells (of total cells),hESCs [3]; added starting at day 1,about 65%
same,increase in SIX6 mRNA levels,"hESCs [4]; Day 5 of differentiation, FP induction versus NSB control","About 50,000 fold"
same,PAX6 and BF1 expression,"hESCs [4]; day 7, versus NSB",drastic reduction in PAX6 and BF1
same,DKK-1 mRNA and protein levels,DKK-1,drastic reduction
same,potency relative to non-modified N-terminal SHH,[5],~10 times
"c1cc(-c2cnn3cc(-c4ccc(OCCN5CCCCC5)cc4)cnc23)ccn1 [Dorsomorphin, 6-[4-[2-(1-Piperidinyl)ethoxy]phenyl]-3-(4-pyridinyl)-pyrazolo[1,5-a]pyrimidine dihydrochloride]",efficiency of neural induction based on the percentage of PAX6+ cells,hESCs [6],not as high as used with Noggin/SB431542
B1,cdx2 induction / trophoectodermal differentiation,hESCs [7],induction of cdx2
